Assays:
Format in all cases: functional
[1] = test system: HT-29; assay: Cytotoxicity against human HT-29 cells assessed as growth inhibition after 48 hrs by sulforhodamine B assay; conditions: HT-29, 48 h
[2] = test system: SF-268; assay: Cytotoxicity against human SF268 cells assessed as growth inhibition after 48 hrs by sulforhodamine B assay; conditions: SF-268, 48 h
[3] = test system: IGROV-1; assay: Cytotoxicity against human IGROV1 cells assessed as growth inhibition after 48 hrs by sulforhodamine B assay; conditions: IGROV-1, 48 h
[4] = test system: OVCAR-3; assay: Cytotoxicity against human OVCAR3 cells assessed as growth inhibition after 48 hrs by sulforhodamine B assay; conditions: OVCAR-3, 48 h
[5] = test system: Hs-578T; assay: Cytotoxicity against human Hs 578T cells assessed as growth inhibition after 48 hrs by sulforhodamine B assay
[6] = test system: SNB-19; assay: Cytotoxicity against human SNB19 cells assessed as cell growth at 0.01 uM after 48 hrs by sulforhodamine B assay relative to control; conditions: SNB-19, 48 h, read-out: Activity
[7] = test system: SF-539; assay: Cytotoxicity against human SF539 cells assessed as cell growth at 0.01 uM after 48 hrs by sulforhodamine B assay relative to control; conditions: SF-539, 48 h, read-out: Activity
[8] = test system: PC-3; assay: Cytotoxicity against human PC3 cells assessed as cell growth at 0.01 uM after 48 hrs by sulforhodamine B assay relative to control; conditions: PC-3, 48 h, read-out: Activity
[9] = test system: DU-145; assay: Cytotoxicity against human DU145 cells assessed as cell growth at 0.01 uM after 48 hrs by sulforhodamine B assay relative to control; conditions: DU-145, 48 h, read-out: Activity
[10] = test system: T47D; assay: Cytotoxicity against human T47D cells assessed as cell growth at 0.01 uM after 48 hrs by sulforhodamine B assay relative to control; conditions: read-out: Activity
[11] = test system: NCI-H322M; assay: Cytotoxicity against human NCI-H322M cells assessed as cell growth at 0.1 uM after 48 hrs by sulforhodamine B assay relative to control; conditions: read-out: Activity
[12] = test system: NCI-H522; assay: Cytotoxicity against human NCI-H522 cells assessed as cell growth at 0.1 uM after 48 hrs by sulforhodamine B assay relative to control; conditions: NCI-H522, 48 h, read-out: Activity
[13] = test system: OVCAR-5; assay: Cytotoxicity against human OVCAR5 cells assessed as cell growth at 0.1 uM after 48 hrs by sulforhodamine B assay relative to control; conditions: OVCAR-5, 48 h, read-out: Activity
[14] = test system: MCF7; assay: Cytotoxicity against human MCF7 cells assessed as cell growth at 0.1 uM after 48 hrs by sulforhodamine B assay relative to control; conditions: MCF7, 48 h, read-out: Activity
[15] = test system: SR; assay: Cytotoxicity against human SR cells assessed as cell growth at 1 uM after 48 hrs by sulforhodamine B assay relative to control; conditions: read-out: Activity
[16] = test system: HCC 2998; assay: Cytotoxicity against human HCC2998 cells assessed as cell growth at 1 uM after 48 hrs by sulforhodamine B assay relative to control; conditions: HCC 2998, 48 h, read-out: Activity
[17] = test system: HT-29; assay: Cytotoxicity against human HT-29 cells assessed as cell growth at 1 uM after 48 hrs by sulforhodamine B assay relative to control; conditions: HT-29, 48 h, read-out: Activity
[18] = test system: SW-620; assay: Cytotoxicity against human SW620 cells assessed as cell growth at 1 uM after 48 hrs by sulforhodamine B assay relative to control; conditions: SW-620, 48 h, read-out: Activity
[19] = test system: SNB-19; assay: Cytotoxicity against human SNB19 cells assessed as cell growth at 1 uM after 48 hrs by sulforhodamine B assay relative to control; conditions: SNB-19, 48 h, read-out: Activity
[20] = test system: M14; assay: Cytotoxicity against human M14 cells assessed as cell growth at 1 uM after 48 hrs by sulforhodamine B assay relative to control; conditions: M14, 48 h, read-out: Activity
[21] = test system: 786-0; assay: Cytotoxicity against human 786-0 cells assessed as cell growth at 1 uM after 48 hrs by sulforhodamine B assay relative to control; conditions: 786-0, 48 h, read-out: Activity
[22] = test system: SN12C; assay: Cytotoxicity against human SN12C cells assessed as cell growth at 1 uM after 48 hrs by sulforhodamine B assay relative to control; conditions: read-out: Activity
[23] = test system: Hs-578T; assay: Cytotoxicity against human Hs 578T cells assessed as cell growth at 1 uM after 48 hrs by sulforhodamine B assay relative to control; conditions: read-out: Activity
[24] = test system: HOP-62; assay: Cytotoxicity against human HOP62 cells assessed as cell growth at 10 uM after 48 hrs by sulforhodamine B assay relative to control; conditions: HOP-62, 48 h, read-out: Activity
[25] = test system: HT-29; assay: Cytotoxicity against human HT-29 cells assessed as cell growth at 10 uM after 48 hrs by sulforhodamine B assay relative to control; conditions: HT-29, 48 h, read-out: Activity
[26] = test system: U-251; assay: Cytotoxicity against human U251 cells assessed as cell growth at 10 uM after 48 hrs by sulforhodamine B assay relative to control; conditions: U-251, 48 h, read-out: Activity
[27] = test system: NCI/ADR-RES; assay: Cytotoxicity against human NCI/ADR-RES cells assessed as cell growth at 10 uM after 48 hrs by sulforhodamine B assay relative to control; conditions: read-out: Activity
[28] = test system: RXF 393; assay: Cytotoxicity against human RXF393 cells assessed as cell growth at 10 uM after 48 hrs by sulforhodamine B assay relative to control; conditions: RXF 393, 48 h, read-out: Activity
[29] = test system: PC-3; assay: Cytotoxicity against human PC3 cells assessed as cell growth at 10 uM after 48 hrs by sulforhodamine B assay relative to control; conditions: PC-3, 48 h, read-out: Activity
[30] = test system: MDA-MB-468; assay: Cytotoxicity against human MDA-MB-468 cells assessed as cell growth at 10 uM after 48 hrs by sulforhodamine B assay relative to control; conditions: MDA-MB-468, 48 h, read-out: Activity
[31] = test system: HL-60(TB); assay: Cytotoxicity against human HL-60(TB) cells assessed as cell growth at 100 uM after 48 hrs by sulforhodamine B assay relative to control; conditions: HL-60, 48 h, read-out: Activity
[32] = test system: SR; assay: Cytotoxicity against human SR cells assessed as cell growth at 100 uM after 48 hrs by sulforhodamine B assay relative to control; conditions: read-out: Activity
[33] = test system: HCC 2998; assay: Cytotoxicity against human HCC2998 cells assessed as cell growth at 100 uM after 48 hrs by sulforhodamine B assay relative to control; conditions: HCC 2998, 48 h, read-out: Activity
[34] = test system: HCT-15; assay: Cytotoxicity against human HCT15 cells assessed as cell growth at 100 uM after 48 hrs by sulforhodamine B assay relative to control; conditions: HCT-15, 48 h, read-out: Activity
[35] = test system: SK-MEL-28; assay: Cytotoxicity against human SK-MEL-28 cells assessed as cell growth at 100 uM after 48 hrs by sulforhodamine B assay relative to control; conditions: SK-MEL-28, 48 h, read-out: Activity
[36] = test system: OVCAR-5; assay: Cytotoxicity against human OVCAR5 cells assessed as cell growth at 100 uM after 48 hrs by sulforhodamine B assay relative to control; conditions: OVCAR-5, 48 h, read-out: Activity

COc1cc(C(=O)/C=C/c2cc(-c3ccc4c(c3)OCO4)n[nH]2)cc(OC)c1OC
GI50 [1]: 2.45 µM | LC50 [1]: > 100 µM | TGI [1]: 6.53 µM | GI50 [2]: 2.45 µM | TGI [2]: 7.64 µM | CC50 ([2]; read-out: LC50 (the source's name)): 31.2 µM | GI50 [3]: 1.99 µM | LC50 [3]: 23.4 µM | TGI [3]: 5.72 µM | GI50 [4]: 1.71 µM | LC50 [4]: 7.17 µM | TGI [4]: 3.5 µM | GI50 [5]: 3.14 µM | LC50 [5]: > 100 µM | TGI [5]: 20.5 µM | growth at 0.01 µM [6]: 92% | growth at 0.01 µM [7]: 101% | growth at 0.01 µM [8]: 97% | growth at 0.01 µM [9]: 102% | growth at 0.01 µM [10]: 90% | growth at 0.1 µM [11]: 94% | growth at 0.1 µM [12]: 90% | growth at 0.1 µM [13]: 99% | growth at 0.1 µM [14]: 94% | growth at 1 µM [15]: 56% | growth at 1 µM [16]: 100% | growth at 1 µM [17]: 96% | growth at 1 µM [18]: 78% | growth at 1 µM [19]: 75% | growth at 1 µM [20]: 96% | growth at 1 µM [21]: 98% | growth at 1 µM [22]: 90% | growth at 1 µM [23]: 90% | growth at 10 µM [24]: -24% | growth at 10 µM [25]: -22% | growth at 10 µM [26]: -96% | growth at 10 µM [27]: 2% | growth at 10 µM [28]: -76% | growth at 10 µM [29]: -46% | growth at 10 µM [30]: -57% | growth at 100 µM [31]: -31% | growth at 100 µM [32]: -17% | growth at 100 µM [33]: -95% | growth at 100 µM [34]: -45% | growth at 100 µM [35]: -96% | growth at 100 µM [36]: -56%

Source: ChEMBL document CHEMBL4138123, “Design, synthesis and biological evaluation of novel pyrazolochalcones as potential modulators of PI3K/Akt/mTOR pathway and inducers of apoptosis in breast cancer cells” (Eur J Med Chem, 2017)
